One assay deals with PRMT5/MEP50 complex (Homo sapiens (Human), UniProt O14744). Description: Biochemical assay: PRMT5/MEP50 methylation of histone H4 based AcH4-23, SPA readout. Conditions: PRMT5/MEP50 2.5 nM, 300 nM AcH4-23, 1 μM 3H-SAM. The method, then:
Biochemical Assay Protocol
Compounds were solubilized and 3-fold diluted in 100% DMSO. […] Standard reactions were performed in a total volume of 30 μl in assay buffer, with 300 nM histone H4 based AcH4-23 (Anaspec: AS-65002) as substrate. To this was added the PRMT5/MEP50 complex diluted to provide a final assay concentration of 2.5 nM and the compounds were allowed to preincubate for 20 minutes at 37° C. The reaction was initiated by adding S-[3H-methyl]-adenosyl-L-methionine (PerkinElmer: NET155001MC) to final concentration of 1 μM. Following a 30 minutes incubation at 37° C., the reaction was stopped by adding 25 μL of 8M Guanidine HCl. Prepare streptavidin YSI SPA beads (Perkinelmer: RPNQ0012) at 0.3 mg/mL in assay buffer. To each reaction, add 150 μL of SPA beads suspension, and incubated while shaking at room temperature for 30 minutes. The plate was centrifuged at 100×g for 30 second before reading in a scintillation counter. IC50 values were determined by fitting the data to the standard 4 parameters with Hill Slope using GraphPad Prism software.

In assay [1] the test system is sDMA marks (SmD3me2s) in U-87 MG cells. Description: Western blotting for symmetric di-methyl arginine (sDMA) marks in U-87 MG cells. It counts as cell-based. Conditions: Homo sapiens, 72 h; U-87 MG cell line, 3 days. The protocol: (§1) Cell Treatment and Western Blotting for Detecting Symmetric Di-Methyl Arginine (sDMA) Marks
(§2) Compound Titration and Cell Culture:
(§3) Compounds were dissolved in DMSO to make 10 mM stock and 3-fold series dilutions were further conducted to make working stocks top at 1 mM. Granta-519 cells were maintained in PRMI 1640 (Corning Cellgro, Catalog #: 10-040-CV) supplemented with 10% v/v FBS (GE Healthcare, Catalog #: SH30910.03) and U-87 MG cells were maintained in DMEM (Corning Cellgro, Catalog #: 10-013-CV) with 10% FBS and 2 mM Glutamin (Corning Cellgro, Catalog #25005CV).
To determine enzyme inhibition IC50 values in Granta-519 and U-87 MG cells using Western Blot analysis. One day before experiment, Granta-519 cells were passaged to a density of 0.5×10^6 cells/ml. U-87 MG cells were trypsinized and 4×10^5 cells were seeded into 6-well plates and allow to grow overnight. The next day, Granta-519 cells were spun down at 1,500 rpm for 4 min, resuspend in fresh medium at 0.5×10^6 cells/ml and 3 mL of culture (1.5×10^6 cells) were seeded into 6 well plate. Eight-point, 3-fold serial dilutions of compound working stocks were added to cells (3 ul, 1:1,000 dilution, DMSO concentration was 0.1%; final top concentration at 1 uM) and incubated for 3 days. Cells incubated with DMSO was used as a vehicle control.
Cells were harvested 3 days later, resuspended in 15 uL PBS, lysed in 4% SDS, and homogenized by passing through homogenizer column (Omega Biotek, Catalog #: HCR003). Total protein concentrations were determined by BCA assay (ThermoFisher Scientific, Catalog #: 23225). Lysates were mixed with 5× Laemmli buffer and boiled for 5 min. Forty ug of total protein was separated on SDS-PAGE gels (Bio-Rad, catalog #: 4568083, 4568043), transferred to PVDF membrane, blocked with 5% dry milk (Bio-Rad, Catalog #: 1706404) in TBS with 0.1% v/v Tween 20 (TBST) for 1 hour at room temperature (RT), and incubated with primary antibodies (sDMA: Cell signaling, Catalog #: 13222, 1:3,000; β-Actin: sigma, Catalog #: 1:5,000) in 5% dry milk in TBST at 4° C. overnight. The next day, membranes were washed with TBST, 5×5 min, and incubated with HRP conjugated seconded antibody (GE Healthcare; Catalog #: NA934-1ML, NA931-1ML; 1:5,000) for 2 hours at RT, followed by 5×5 min washes with TBST, and incubation with ECL substrates (Bio-Rad, Catalog #: 1705061, 1705062). Chemiluminescent signal was captured with Fluochem HD2 imager (Proteinsimple). SmD3me2s bands were quantified by ImageJ. Signals were normalized to β-Actin and DMSO control. IC50 values were calculated using Graphpad Prism ([Inhibitor] vs. normalized response-Variable slope).
(In general: In western blotting, separated proteins are transferred to a membrane and probed.)

The subject of assay [2] is sDMA marks (SmD3me2s) in Granta-519 cells. Description: Western blotting for symmetric di-methyl arginine (sDMA) marks in Granta-519 cells. In kind it is cell-based. As to conditions: Homo sapiens, 72 h; Granta-519 cell line (value in brackets), 3 days. The method, then: as §1, §2, §3
To determine enzyme inhibition IC50 values in Granta-519 and U-87 MG cells using Western Blot analysis. One day before experiment, Granta-519 cells were passaged to a density of 0.5×10^6 cells/ml. U-87 MG cells were trypsinized and 4×10^5 cells were seeded into 6-well plates and allow to grow overnight. […]
Cells were harvested 3 days later, resuspended in 15 uL PBS, lysed in 4% SDS, and homogenized by passing through homogenizer column (Omega Biotek, Catalog #: HCR003). Total protein concentrations were determined by BCA assay (ThermoFisher Scientific, Catalog #: 23225). […] SmD3me2s bands were quantified by ImageJ. […] IC50 values were calculated using Graphpad Prism ([Inhibitor] vs. normalized response-Variable slope).

Another assay deals with U-87 MG cells. Description: Cell proliferation assay (CCK-8, day 10) in U-87 MG cells. Conditions: Homo sapiens, 240 h, U-87 MG cell line, read-out: Prolif. IC50. In kind it is cell-based. The method, then: Cell Proliferation Assay to Determine IC50 in Granta-519 and U-87 MG Cells
One day before experiment, Granta-519 cells were passaged to a density of 0.5×10^6 cells/ml. U-87 MG cells were trypsinized and 2,000 cells were seeded into 96-well plates and allow to grow overnight. On the day of experiment (day 0), Granta-519 Cells were spun down at 1,500 rpm for 4 min, resuspended in fresh medium to 0.5×10^6 cells/ml and 190 ul of cells were added to 96 well plates. For U-87 MG cells, old medium was removed and replaced with 190 uL fresh medium. Compound working stocks were first diluted at 1:50 with fresh medium in 96 well plate and 10 μL of diluted drugs were added to 96 well plates containing cells and incubated for 3 days. DMSO was used a vehicle control.
One day 3, 50 uL of Granta-519 cells were transferred to a new 96-well plate and 140 uL fresh medium was added. For U-87 MG cells, old medium was removed and replaced with 190 uL fresh medium. Compound working stocks were freshly diluted at 1:50 with medium and 10 μL of diluted drugs were added to cells and grow for 3additional days. The same process was repeated on day 6. Cells were allowed to grow for additional 4 days.
On day 10, 100 uL Granta-519 cells were transferred to a new 96 well plate and 10 μL of Cell Counting Kit-8 (CCK-8, Jojindo, CK04-13) solution was added. For U-87 MG cells, old medium was removed and replaced with 100 uL fresh medium and 10 uL CCK-8 solution was added. Plates were incubated in CO2 incubator for 2 hours (Granta-519 cells) or 30 min (U-87 MG cells) and OD450 values were measured with a microplate reader (iMark microplate reader, Bio-Rad). Percentage of viable cells, relative to DMSO vehicle control, were calculated and plotted in Graphpad Prism ([Inhibitor] vs. normalized response-Variable slope) to determine proliferation IC50 values on day 10.

A word on the IC50: it is the concentration at which inhibition is half-maximal.

Sequence of PRMT5/MEP50 complex (O14744 whole entry): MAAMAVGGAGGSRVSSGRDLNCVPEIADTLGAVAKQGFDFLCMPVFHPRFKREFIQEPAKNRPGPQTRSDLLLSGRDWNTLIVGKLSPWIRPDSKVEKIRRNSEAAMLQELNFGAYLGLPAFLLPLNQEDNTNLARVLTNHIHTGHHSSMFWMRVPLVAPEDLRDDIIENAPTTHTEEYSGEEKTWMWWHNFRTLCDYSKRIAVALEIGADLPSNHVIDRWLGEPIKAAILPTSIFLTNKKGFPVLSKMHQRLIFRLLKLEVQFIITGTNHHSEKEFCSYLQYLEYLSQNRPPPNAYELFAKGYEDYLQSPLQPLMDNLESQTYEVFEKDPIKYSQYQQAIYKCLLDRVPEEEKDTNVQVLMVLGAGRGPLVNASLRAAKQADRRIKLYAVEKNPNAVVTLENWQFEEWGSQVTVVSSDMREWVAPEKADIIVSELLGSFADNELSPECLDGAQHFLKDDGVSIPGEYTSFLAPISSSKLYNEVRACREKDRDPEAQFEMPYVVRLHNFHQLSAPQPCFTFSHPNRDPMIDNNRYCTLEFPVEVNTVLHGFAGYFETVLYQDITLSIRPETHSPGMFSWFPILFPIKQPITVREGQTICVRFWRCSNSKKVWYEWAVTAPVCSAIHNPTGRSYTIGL
Sequence of PRMT5/MEP50 complex (Q9BQA1 whole entry partner): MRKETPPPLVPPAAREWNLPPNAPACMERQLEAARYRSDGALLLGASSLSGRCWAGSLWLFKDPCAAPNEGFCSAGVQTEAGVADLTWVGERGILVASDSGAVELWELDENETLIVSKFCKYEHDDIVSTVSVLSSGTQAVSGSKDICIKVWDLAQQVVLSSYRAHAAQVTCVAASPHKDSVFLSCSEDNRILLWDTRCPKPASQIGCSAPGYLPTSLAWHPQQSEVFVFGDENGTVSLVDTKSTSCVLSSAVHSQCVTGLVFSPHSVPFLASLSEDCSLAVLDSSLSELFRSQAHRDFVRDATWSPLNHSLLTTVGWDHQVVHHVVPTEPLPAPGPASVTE

As for `Nc1ncnc2c1ccn2[C@@H]1O[C@H]([C@@H]2OCc3cc(Cl)ccc32)[C@@H](O)[C@H]1O` [Example 1A, (2R,3R,4S,5S)-2-(4-amino-7H-pyrrolo[2,3-d]pyrimidin-7-yl)-5-((R)-5-chloro-1,3-dihydroisobenzofuran-1-yl)tetrahydrofuran-3,4-diol], the IC50 against PRMT5/MEP50 complex was 3.8 nM; in assay [1], 120 nM; in assay [2], 27 nM; in the assay on U-87 MG cells it was 142 nM.
On to `Nc1ncnc2c1ccn2[C@@H]1C[C@H]([C@@H]2OC(=O)c3cc(Cl)ccc32)[C@@H](O)[C@H]1O` [Example 3A, (S)-3-((1S,2R,3S,4R)-4-(4-amino-7H-pyrrolo[2,3-d]pyrimidin-7-yl)-2,3-dihydroxycyclopentyl)-6-chloroisobenzofuran-1(3H)-one], for which the figures for the IC50 (against PRMT5/MEP50 complex; in assay [2]) were 21 nM and 1620 nM, respectively.
With `Cc1ncnc2c1c(F)cn2[C@@H]1O[C@H]([C@@H]2OCCc3cc(Cl)ccc32)[C@@H](O)[C@H]1O` [Example 85, (2S,3S,4R,5R)-2-((R)-6-chloroisochroman-1-yl)-5-(5-fluoro-4-methyl-7H-pyrrolo[2,3-d]pyrimidin-7-yl)tetrahydrofuran-3,4-diol], the results for the IC50 (against PRMT5/MEP50 complex; in assay [1]; in the assay on U-87 MG cells) were 14.7 nM, 173 nM and 304 nM, respectively.
For `Nc1ncnc2c1c(F)cn2[C@@H]1O[C@H]([C@@H]2OCCc3cc(Cl)ccc32)[C@@H](O)[C@H]1O` [Example 86, (2R,3R,4S,5S)-2-(4-amino-5-fluoro-7H-pyrrolo[2,3-d]pyrimidin-7-yl)-5-((R)-6-chloroisochroman-1-yl)tetrahydrofuran-3,4-diol], the IC50 against PRMT5/MEP50 complex was determined as 2 nM; in assay [1], 5.4 nM; in the assay on U-87 MG cells it was 13 nM.
The corresponding values for `Cc1ncnc2c1ccn2[C@@H]1O[C@H]([C@@H]2OCCc3cc(Cl)c(Cl)cc32)[C@@H](O)[C@H]1O` [Example 87, (2S,3S,4R,5R)-2-((R)-6,7-dichloroisochroman-1-yl)-5-(4-methyl-7H-pyrrolo[2,3-d]pyrimidin-7-yl)tetrahydrofuran-3,4-diol] are 7.7 nM, 120 nM and 509 nM.
The corresponding values for `Nc1ncnc2c1ccn2[C@@H]1O[C@H]([C@@H]2OCCc3cc(Cl)c(Cl)cc32)[C@@H](O)[C@H]1O` [Example 88, (2R,3R,4S,5S)-2-(4-amino-7H-pyrrolo[2,3-d]pyrimidin-7-yl)-5-((R)-6,7-dichloroisochroman-1-yl)tetrahydrofuran-3,4-diol] are 1.6 nM, 18.5 nM and 60 nM.
The corresponding values for `Cc1ncnc2c1ccn2[C@@H]1O[C@H]([C@@H]2OCCc3cc(Cl)sc32)[C@@H](O)[C@H]1O` [Example 89, (2S,3S,4R,5R)-2-((S)-2-chloro-4,7-dihydro-5H-thieno[2,3-c]pyran-7-yl)-5-(4-methyl-7H-pyrrolo[2,3-d]pyrimidin-7-yl)tetrahydrofuran-3,4-diol] are 15.7 nM, 84.4 nM and 179 nM.
With `Nc1ncnc2c1ccn2[C@@H]1O[C@H]([C@@H]2OCCc3cc(Cl)sc32)[C@@H](O)[C@H]1O` [Example 90, (2R,3R,4S,5S)-2-(4-amino-7H-pyrrolo[2,3-d]pyrimidin-7-yl)-5-((S)-2-chloro-4,7-dihydro-5H-thieno[2,3-c]pyran-7-yl)tetrahydrofuran-3,4-diol], the IC50 on PRMT5/MEP50 complex amounted to 2.2 nM; in assay [1] it was 11.4 nM; in the assay with U-87 MG cells it was 33.3 nM.
The corresponding values for `Nc1ncnc2c1ccn2[C@@H]1O[C@H]([C@@H]2OC[C@H](F)c3cc(Cl)ccc32)[C@@H](O)[C@H]1O` [Example 95, (2R,3R,4S,5S)-2-(4-amino-7H-pyrrolo[2,3-d]pyrimidin-7-yl)-5-((1R,4R)-6-chloro-4-fluoroisochroman-1-yl)tetrahydrofuran-3,4-diol] are 1.6 nM, 11.1 nM and 18.5 nM.
Consider `Cc1ncnc2c1ccn2[C@@H]1O[C@H]([C@@H]2OCOc3c2ccc(F)c3F)[C@@H](O)[C@H]1O` [Example 97, (2S,3S,4R,5R)-2-((R)-7,8-difluoro-4H-benzo[d][1,3]dioxin-4-yl)-5-(4-methyl-7H-pyrrolo[2,3-d]pyrimidin-7-yl)tetrahydrofuran-3,4-diol], for which the figures for the IC50 (on PRMT5/MEP50 complex; in assay [1]; with U-87 MG cells) were 4.7 nM, 51.7 nM and 117 nM, respectively.
The corresponding values for `Cc1ncnc2c1ccn2[C@@H]1O[C@H]([C@@H]2NCCc3cc(Cl)ccc32)[C@@H](O)[C@H]1O` [Example 98, (2R,3S,4R,5R)-2-[(1R)-6-chloro-1,2,3,4-tetrahydroisoquinolin-1-yl]-5-(4-methylpyrrolo[2,3-d]pyrimidin-7-yl)tetrahydrofuran-3,4-diol] are 11.9 nM, 579 nM and 662 nM.

Values taken from US10711007B2, “Selective inhibitors of protein arginine methyltransferase 5 (PRMT5)” (Prelude Therapeutics, Incorporated, priority 2018, dated 2020).
